According to patent US9840513B2 (AbbVie S.à.r.l., priority 2015, dated 2017):

Biological target: T1, F508delCFTR cell surface expression in CFBE41o-F508delCFTR-HRP cells (Homo sapiens, UniProt P13569, DEL508-508)
T1 construct: fused on or other part: Horseradish peroxidase (HRP) reporter inserted in the fourth exofacial (extracellular) loop of CFTR; expression is doxycycline-inducible
Experiment: Cell Surface Expression-Horse Radish Peroxidase (CSE-HRP) Assay
Type: cell-based
Conditions: for EC50: CFBE41o-F508delCFTR-HRP cells, 18-24 hours at 33° C., 8-point curve, highest concentration 20 μM; for Maximum % activity (%): maximum at any tested concentration, normalized to on-plate positive control (3 μM)
Outline: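 CFBE41o- cells with HRP-tagged F508delCFTR, expression induced by 0.5 μg/mL doxycycline for 72 h at 37 °C, then compound for 18-24 h at 33 °C (8-point, 3-fold, top 20 μM). Surface HRP measured by luminol luminescence; % activity normalised to 3 μM positive-control corrector; EC50 from variable-slope sigmoidal fit, three replicate plates.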

T1 sequence (P13569 with tags, fused parts or gaps DEL508-508 limits assumed): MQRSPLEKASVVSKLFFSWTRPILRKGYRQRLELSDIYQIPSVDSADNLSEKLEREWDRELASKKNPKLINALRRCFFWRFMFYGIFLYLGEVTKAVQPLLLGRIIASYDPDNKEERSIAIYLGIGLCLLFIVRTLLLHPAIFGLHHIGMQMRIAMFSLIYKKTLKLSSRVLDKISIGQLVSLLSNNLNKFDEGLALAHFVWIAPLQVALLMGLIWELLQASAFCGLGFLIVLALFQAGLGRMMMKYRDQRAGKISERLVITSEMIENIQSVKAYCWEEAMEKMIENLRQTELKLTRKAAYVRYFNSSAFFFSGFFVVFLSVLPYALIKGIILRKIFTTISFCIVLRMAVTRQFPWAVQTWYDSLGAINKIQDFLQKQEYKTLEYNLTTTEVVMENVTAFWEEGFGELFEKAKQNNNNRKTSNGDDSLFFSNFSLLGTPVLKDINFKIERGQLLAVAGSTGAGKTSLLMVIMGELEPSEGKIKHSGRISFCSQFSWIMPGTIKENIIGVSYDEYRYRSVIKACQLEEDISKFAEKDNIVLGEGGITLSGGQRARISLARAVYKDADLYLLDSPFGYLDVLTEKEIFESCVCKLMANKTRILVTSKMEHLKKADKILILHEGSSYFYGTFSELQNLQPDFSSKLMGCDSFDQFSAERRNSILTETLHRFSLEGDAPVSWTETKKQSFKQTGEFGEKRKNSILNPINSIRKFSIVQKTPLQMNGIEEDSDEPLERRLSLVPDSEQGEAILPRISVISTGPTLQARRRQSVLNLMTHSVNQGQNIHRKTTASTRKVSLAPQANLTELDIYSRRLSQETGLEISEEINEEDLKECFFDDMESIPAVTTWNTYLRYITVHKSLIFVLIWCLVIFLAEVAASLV
T1 sequence (P13569 919-1480 limits assumed, stated change not applied): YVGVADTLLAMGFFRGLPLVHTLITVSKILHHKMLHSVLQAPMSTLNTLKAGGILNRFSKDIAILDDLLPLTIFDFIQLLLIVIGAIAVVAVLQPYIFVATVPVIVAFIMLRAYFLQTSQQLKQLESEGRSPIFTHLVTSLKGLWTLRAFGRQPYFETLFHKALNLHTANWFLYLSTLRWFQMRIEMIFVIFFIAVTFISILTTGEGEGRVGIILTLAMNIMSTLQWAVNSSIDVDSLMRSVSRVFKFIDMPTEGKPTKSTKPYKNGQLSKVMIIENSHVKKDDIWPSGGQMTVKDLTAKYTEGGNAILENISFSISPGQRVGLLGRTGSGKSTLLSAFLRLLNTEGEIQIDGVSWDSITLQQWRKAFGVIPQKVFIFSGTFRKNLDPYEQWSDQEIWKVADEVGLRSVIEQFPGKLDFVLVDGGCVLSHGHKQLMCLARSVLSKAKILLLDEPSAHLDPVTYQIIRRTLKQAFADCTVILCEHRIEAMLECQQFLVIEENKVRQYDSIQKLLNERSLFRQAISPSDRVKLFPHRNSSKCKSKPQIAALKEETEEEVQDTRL

## COc1ccc2c(c1)O[C@H](COC[C@H](O)CO)C[C@@H]2NC(=O)[C@@]1(C)COc2cc3c(cc21)OC(F)(F)O3 [Example 275, (7R)—N-[(2S,4S)-2-{[(2R)-2,3-dihydroxypropoxy]methyl}-7-methoxy-3,4-dihydro-2H-1-benzopyran-4-yl]-2,2-difluoro-7-methyl-6,7-dihydro-2H-furo[2,3-f][1,3]benzodioxole-7-carboxamide]
  EC50: > 20 µM
  Maximum % activity (%): 7%

## C[C@]1(C(=O)Nc2cccc(-c3ccc(C(=O)O)cc3F)n2)COc2cc3c(cc21)OC(F)(F)O3 [Example 123, 4-(6-{[(7R)-2,2-difluoro-7-methyl-6,7-dihydro-2H-furo[2,3-f][1,3]benzodioxole-7-carbonyl]amino}pyridin-2-yl)-3-fluorobenzoic acid]
  EC50: 1.53 µM
  Maximum % activity (%): 189%

## Cc1c(C(=O)O)cccc1-c1cccc(NC(=O)[C@@]2(C)COc3cc4c(cc32)OC(F)(F)O4)n1 [Example 122, 3-(6-{[(7R)-2,2-difluoro-7-methyl-6,7-dihydro-2H-furo[2,3-f][1,3]benzodioxole-7-carbonyl]amino}pyridin-2-yl)-2-methylbenzoic acid]
  EC50: 1.94 µM
  Maximum % activity (%): 173%

## COc1ccc2c(c1)O[C@@H](c1ccc(Br)nc1)C[C@H]2NC(=O)[C@@]1(C)COc2cc3c(cc21)OC(F)(F)O3 [Example 176, (7R)—N-[(2R,4R)-2-(6-bromopyridin-3-yl)-7-methoxy-3,4-dihydro-2H-1-benzopyran-4-yl]-2,2-difluoro-7-methyl-6,7-dihydro-2H-furo[2,3-f][1,3]benzodioxole-7-carboxamide]
  EC50: 0.27 µM
  Maximum % activity (%): 118%

## COC(=O)c1ccc([C@H]2C[C@@H](NC(=O)[C@@]3(C)COc4cc5c(cc43)OC(F)(F)O5)c3ccc(OC)cc3O2)cc1 [Example 19, methyl 4-[(2R,4R)-4-{[(7R)-2,2-difluoro-7-methyl-6,7-dihydro-2H-furo[2,3-f][1,3]benzodioxole-7-carbonyl]amino}-7-methoxy-3,4-dihydro-2H-1-benzopyran-2-yl]benzoate]
  EC50: 0.08 µM
  Maximum % activity (%): 130%

## CCOC(=O)C1([C@@H]2C[C@H](NC(=O)[C@@]3(C)COc4cc5c(cc43)OC(F)(F)O5)c3ccc(OC(F)(F)F)cc3O2)CC1 [Example 165, ethyl 1-[(2S,4S)-4-{[(7R)-2,2-difluoro-7-methyl-6,7-dihydro-2H-furo[2,3-f][1,3]benzodioxole-7-carbonyl]amino}-7-(trifluoromethoxy)-3,4-dihydro-2H-1-benzopyran-2-yl]cyclopropane-1-carboxylate]
  EC50: 2.64 µM
  Maximum % activity (%): 85%

## Cc1ccc(-c2cccc(C(=O)O)c2)nc1NC(=O)[C@@]1(C)COc2cc3c(cc21)OC(F)(F)O3 [Example 84, 3-(6-{[(7R)-2,2-difluoro-7-methyl-6,7-dihydro-2H-furo[2,3-f][1,3]benzodioxole-7-carbonyl]amino}-5-methylpyridin-2-yl)benzoic acid]
  EC50: 7.51 µM
  Maximum % activity (%): 46%

## C[C@]1(C(=O)Nc2cccc(N3CCCCC3)n2)COc2cc3c(cc21)OC(F)(F)O3 [Example 119, (7R)-2,2-difluoro-7-methyl-N-[6-(piperidin-1-yl)pyridin-2-yl]-6,7-dihydro-2H-furo[2,3-f][1,3]benzodioxole-7-carboxamide]
  EC50: 1.18 µM
  Maximum % activity (%): 136%

## C[C@]1(C(=O)N[C@H]2C[C@@H](C3CCN(CC(=O)O)CC3)Oc3cc(OC(F)(F)F)ccc32)COc2cc3c(cc21)OC(F)(F)O3 [Example 184, {4-[(2S,4S)-4-{[(7R)-2,2-difluoro-7-methyl-6,7-dihydro-2H-furo[2,3-f][1,3]benzodioxole-7-carbonyl]amino}-7-(trifluoromethoxy)-3,4-dihydro-2H-1-benzopyran-2-yl]piperidin-1-yl}acetic acid]
  EC50: > 20 µM
  Maximum % activity (%): 12%

## C[C@]1(C(=O)Nc2cc(Br)cn(-c3ccc(C(=O)O)cc3)c2=O)COc2cc3c(cc21)OC(F)(F)O3 [Example 97, 4-[5-bromo-3-{[(7R)-2,2-difluoro-7-methyl-6,7-dihydro-2H-furo[2,3-f][1,3]benzodioxole-7-carbonyl]amino}-2-oxopyridin-1(2H)-yl]benzoic acid]
  EC50: 0.48 µM
  Maximum % activity (%): 148%

## CC1(C)OC[C@@H](Cn2nc(-c3ccccc3)cc(NC(=O)[C@]3(C)COc4cc5c(cc43)OC(F)(F)O5)c2=O)O1 [Example 41, (7S)—N-(2-{[(4R)-2,2-dimethyl-1,3-dioxolan-4-yl]methyl}-3-oxo-6-phenyl-2,3-dihydropyridazin-4-yl)-2,2-difluoro-7-methyl-6,7-dihydro-2H-furo[2,3-f][1,3]benzodioxole-7-carboxamide]
  EC50: > 20 µM
  Maximum % activity (%): 3%

## CC1(C(=O)Nc2nc(-c3ccc(C#N)cc3)cs2)COc2cc3c(cc21)OC(F)(F)O3 (stereo not shown) [Example 63, N-[4-(4-cyanophenyl)-1,3-thiazol-2-yl]-2,2-difluoro-7-methyl-6,7-dihydro-2H-furo[2,3-f][1,3]benzodioxole-7-carboxamide]
  EC50: 8.64 µM
  Maximum % activity (%): 41%

## C[C@]1(C(=O)N[C@H]2C[C@@H]([C@H]3CC[C@@H](C(=O)O)CC3)Oc3cc(OC(F)(F)F)ccc32)COc2cc3c(cc21)OC(F)(F)O3 [Example 161, cis-4-[(2S,4S)-4-{[(7R)-2,2-difluoro-7-methyl-6,7-dihydro-2H-furo[2,3-f][1,3]benzodioxole-7-carbonyl]amino}-7-(trifluoromethoxy)-3,4-dihydro-2H-1-benzopyran-2-yl]cyclohexane-1-carboxylic acid]
  EC50: 5.09 µM
  Maximum % activity (%): 101%

## Cc1ccc(NC(=O)[C@]2(C)COc3cc4c(cc32)OC(F)(F)O4)nc1-c1cccc(C(=O)OC(C)(C)C)c1 [Example 3, tert-butyl 3-(6-{[(7S)-2,2-difluoro-7-methyl-6,7-dihydro-2H-furo[2,3-f][1,3]benzodioxole-7-carbonyl]amino}-3-methylpyridin-2-yl)benzoate]
  EC50: > 20 µM
  Maximum % activity (%): 3%

## C[C@]1(C(=O)Nc2cccc(N3CC[C@H](O)C3)n2)COc2cc3c(cc21)OC(F)(F)O3 [Example 88, (7R)-2,2-difluoro-N-{6-[(3S)-3-hydroxypyrrolidin-1-yl]pyridin-2-yl}-7-methyl-6,7-dihydro-2H-furo[2,3-f][1,3]benzodioxole-7-carboxamide]
  EC50: 0.73 µM
  Maximum % activity (%): 113%

## C[C@]1(C(=O)Nc2cc3cc(C4(COCc5ccccc5)CC4)n(C[C@@H](O)CO)c3cc2F)COc2cc3c(cc21)OC(F)(F)O3 [Example 203, (7R)—N-(2-{1-[(benzyloxy)methyl]cyclopropyl}-1-[(2R)-2,3-dihydroxypropyl]-6-fluoro-1H-indol-5-yl)-2,2-difluoro-7-methyl-6,7-dihydro-2H-furo[2,3-f][1,3]benzodioxole-7-carboxamide]
  EC50: 0.66 µM
  Maximum % activity (%): 125%

## CC1(C(=O)Nc2nc(-c3ccc(C(=O)O)cc3)cs2)COc2cc3c(cc21)OC(F)(F)O3 (stereo not shown) [Example 68, 4-{2-[(2,2-difluoro-7-methyl-6,7-dihydro-2H-furo[2,3-f][1,3]benzodioxole-7-carbonyl)amino]-1,3-thiazol-4-yl}benzoic acid]
  EC50: 4.47 µM
  Maximum % activity (%): 44%
